Results reported in patent publication US20080221361A1, “Ionic Liquids” (BIONIQS LIMITED, priority 2005, published 2008).

What was measured:
Format in all cases: physicochemical
Conditions in all cases: product dried to water content between about 0.2 and 1% w/w
[1] = Refractive index, Mettler Toledo Refracto 30 portable refractometer
Description: (§1) Where the starting materials were both liquids, no solvent was used for the synthesis. Viscosities were measured using an AND™ SV10 vibrational viscometer. Refractive indices were obtained using a Mettler Toledo Refracto™ 30 portable refractometer. Densities were measured simply by determining the mass of a measured volume of the liquid. All products were dried prior to characterisation, to a water content of between about 0.2 and 1% w/w.

[2] = Density, mass of a measured volume of the liquid
Description: as §1

[3] = Viscosity, AND SV10 vibrational viscometer
Description: as §1

Row | Molecule | Refractive index (error ± ~2%) [1] | Density (g/cm^3) (error ± ~2%) [2] | Viscosity at 25° C. (centipoise) (error ± ~5%) [3]
1 | CC(=O)O.COCCCN [3-methoxypropylammonium acetate] | 1.447 | 1.04 g/mL | 640 centipoise
2 | COCCCN.O=C(O)CO [3-methoxypropylammonium glycolate] | 1.470 | 1.17 g/mL | 2670 centipoise
3 | CC(=O)O.CCN(CC)CCO [N,N-diethylethanolammonium acetate] | 1.453 | 1.00 g/mL | 55 centipoise
4 | CCN(CC)CCO.O=CO [N,N-diethylethanolammonium formate] | 1.462 | 1.04 g/mL | 395 centipoise
5 | CCN(CC)CCO.O=C(O)CO [N,N-diethylethanolammonium glycolate] | 1.466 | 1.11 g/mL | 740 centipoise
6 | CCCCCCCC(=O)O.CCN(CC)CCO [N,N-diethylethanolammonium octanoate] | 1.451 | 0.96 g/mL | 46 centipoise
7 | CCC(=O)O.CCN(CC)CCO [N,N-diethylethanolammonium propionate] | 1.450 | 0.98 g/mL | 42 centipoise
8 | CC(=O)O.CCN(CC)CC(O)CO (stereo not drawn) [N,N-diethylpropane-2,3-diolammonium acetate] | – | – | 3100 centipoise
9 | CC(=O)O.COCCN(C)C [N,N-dimethyl-2-methoxyethylammonium acetate] | 1.426 | – | –
10 | CCS(=O)(=O)O.COCCN(C)C [N,N-dimethyl-2-methoxyethylammonium ethanesulphonate] | 1.449 | – | –
11 | COCCN(C)C.O=C(O)CO [N,N-dimethyl-2-methoxyethylammonium glycolate] | 1.459 | – | –
12 | COCCN(C)C.CS(=O)(=O)O [N,N-dimethyl-2-methoxyethylammonium methanesulphonate] | 1.449 | – | –
13 | CCC(=O)O.COCCN(C)C [N,N-dimethyl-2-methoxyethylammonium propionate] | 1.422 | – | –
14 | COCCN(C)C.NS(=O)(=O)O [N,N-dimethyl-2-methoxyethylammonium sulphamate] | 1.472 | – | –
15 | CC(=O)O.CN(C)CCOCCO [N,N-dimethyl-N-[(2-hydroxyethoxy)ethyl]ammonium acetate] | 1.45 | 1.05 g/mL | 48 centipoise
16 | CC(=O)O.CN(C)CCCO [N,N-dimethylpropanolammonium acetate] | 1.451 | 1.03 g/mL | 77 centipoise

Row | Molecule | Refractive index (error ± ~2%) [1] | Density (g/cm^3) (error ± ~2%) [2] | Viscosity at 25° C. (centipoise) (error ± ~5%) [3]
17 | CN(C)CCCO.O=CO [N,N-dimethylpropanolammonium formate] | 1.460 | 1.07 g/mL | 132 centipoise
18 | CN(C)CCCO.O=C(O)CO [N,N-dimethylpropanolammonium glycolate] | 1.472 | 1.14 g/mL | 3320 centipoise
19 | CCC(=O)O.CN(C)CCCO [N,N-dimethylpropanolammonium propionate] | 1.441 | 0.99 g/mL | 52 centipoise
20 | CC(=O)O.CCCCNCCO [N-butylethanolammonium acetate] | 1.455 | 1.04 g/mL | 365 centipoise
21 | CCCCNCCO.O=CO [N-butylethanolammonium formate] | 1.462 | 1.04 g/mL | 376 centipoise
22 | CCCCNCCO.O=C(O)CO [N-butylethanolammonium glycolate] | 1.464 | 1.08 g/mL | 800 centipoise
23 | CCCCCCCC(=O)O.CCCCNCCO [N-butylethanolammonium octanoate] | 1.456 | – | 388 centipoise
24 | CCC(=O)O.CCCCNCCO [N-butylethanolammonium propionate] | 1.457 | 1.00 g/mL | –
25 | CC(=O)O.COCCN(C)CCOC [N-methyl-bis(2-methoxyethyl)ammonium acetate] | 1.423 | – | –
26 | COCCN(C)CCOC.O=C(O)CO [N-methyl-bis(2-methoxyethyl)ammonium glycolate] | 1.452 | – | –
27 | CCC(=O)O.COCCN(C)CCOC [N-methyl-bis(2-methoxyethyl)ammonium propionate] | 1.423 | – | –
28 | CC(=O)O.CCCNCCO [N-propylethanolammonium acetate] | 1.459 | 1.04 g/mL | 1310 centipoise
29 | CCC(=O)O.CCCNCCO [N-propylethanolammonium propionate] | 1.456 | 1.02 g/mL | 483 centipoise
30 | N,N-dimethyl-2-methoxyethylammonium octanoate | 1.429 | 0.93 g/mL | 13.5 centipoise
31 | N-methyl-bis(2-methoxyethyl)ammonium octanoate | 1.431 | – | –
